Reference: patent US20090004677A1, “QUANTITATIVE DETERMINATION OF BCL10” (The Board of Trustees of the University of Illinois, priority 2007, published 2009)

Key:
IL-8 = assay: ELISA for IL-8 in spent media of NCM460 cells; type: cell-based, human
Description: NCM460 and primary colon cells were treated with different concentrations (1, 10 and 20 ng/ml) of lipopolysaccharide (LPS; from E. coli 026:B6, #L2654, Sigma-Aldrich, St. Louis, Mo.) for durations of 2, 4, 6, or 24 hours. The endotoxin level of the LPS from E. coli was reported as 500,000 EU (Endotoxin Units)/mg LPS. The secretion of IL-8 and the cellular content of Bcl10 and phospho-IκBα proteins in response to these treatments were assayed. In the majority of experiments, LPS 10 ng/ml for 6 hours was selected as the optimal dose and duration. A second LPS (from Salmonella enterica serotype Minnesota; #L4641, Sigma-Aldrich, St. Louis, Mo.) was also used for some of the experiments. The endotoxin level of the batch of Salmonella enterica was reported as 800,000 EU/mg LPS.
The secretion of IL-8 in the spent media of control and treated NCM460 cells and primary colon cells was measured by the DuoSet Enzyme-linked Immunosorbent Assay (ELISA) kit for human IL-8 (R&D Systems Inc, Minneapolis, Minn.), according to the manufacturer's instructions. The IL-8 in the spent media was captured into the wells of a microtiter plate pre-coated with specific anti-IL-8 monoclonal antibody. Immobilized IL-8 was then detected by biotin-conjugated secondary IL-8 antibody and Streptavidin-HRP. Hydrogen peroxide/tetramethylbenzidine chromogenic substrate was used to develop the color and the intensity of color was measured at 450 nm with a reference filter of 570 nm in an ELISA plate reader (SLT, Spectra). The IL-8 concentrations were extrapolated from a standard curve plotted using known concentrations of IL-8. The sample values were normalized with total protein content (BCA™ Protein assay kit; Pierce, Rockford, Ill.) and expressed as pg or ng/mg cellular protein.

Bcl10 = assay: solid-phase sandwich ELISA for Bcl10 in NCM460 cells; type: cell-based, human
Description: NCM460 and primary colon cells were treated with different concentrations (1, 10 and 20 ng/ml) of lipopolysaccharide (LPS; from E. coli 026:B6, #L2654, Sigma-Aldrich, St. Louis, Mo.) for durations of 2, 4, 6, or 24 hours. The endotoxin level of the LPS from E. coli was reported as 500,000 EU (Endotoxin Units)/mg LPS. The secretion of IL-8 and the cellular content of Bcl10 and phospho-IκBα proteins in response to these treatments were assayed. […] A second LPS (from Salmonella enterica serotype Minnesota; #L4641, Sigma-Aldrich, St. Louis, Mo.) was also used for some of the experiments. The endotoxin level of the batch of Salmonella enterica was reported as 800,000 EU/mg LPS.
The expression of Bcl10 in NCM460 cells or primary colon cells was determined by a solid-phase sandwich ELISA designed to quantify cellular Bcl10. Control or treated cells were lysed in RIPA buffer (50 mM Tris-HCl containing 0.15 M NaCl, 1% Nonidet P40, 0.5% deoxycholic acid and 0.1% SDS, pH 7.4) and the cell extracts were stored at −80° C. until assayed. Bcl10 molecules in the samples or standards were captured in the wells of a microtiter plate pre-coated with rabbit polyclonal antibody to Bcl10 (QED Bioscience Inc., San Diego, Calif.). Immobilized Bcl10 molecules were detected by a mouse monoclonal antibody to Bcl10 (Novus Biologicals, Littleton, Colo.) and goat anti-mouse IgG-horseradish peroxidase (HRP) complex (Santa Cruz Biotechnology, Santa Cruz, Calif.). The peroxidase enzyme activity bound to Bcl10 molecules was determined by chromogenic reaction with hydrogen peroxide/tetramethylbenzidine. Color development due to enzymatic activity was stopped by 2N sulfuric acid, and intensity of the color was measured at 450 nm in ELISA Plate reader (SLT, Spectra). Bcl10 concentrations of the samples were extrapolated from a standard curve derived using known concentrations of recombinant Bcl10 (Calbiochem, EMD Bioscience, San Diego, Carlsbad, Calif.). Sample values were normalized with the total cell protein concentrations determined by BCA™ Protein assay kit (Pierce, Rockford, Ill.). […]

[1] = NCM460 cells, 50 μM inhibitor 2 hours prior to 6 hours LPS 10 ng/ml
[2] = human IEC, LPS 10 ng/ml for 2-6 hours

Compound: O=C(Nc1nc2ccccc2n1CCN1CCOCC1)c1cccc([N+](=O)[O-])c1 [IRAK 1/4 inhibitor, N-(2-morpholinylethyl)-2-(3-nitrobenzoylamido)-benzimidazole]
- IL-8 after LPS with IRAK 1/4 inhibitor (IL-8; [1]): 1.14 ± 0.08 ng/mL
- decline of the LPS-induced increase in IL-8 response (IL-8; [1]): 60%
- effect on the LPS-induced increase in IL-8 (result in words) (IL-8; [2]): eliminated
- Bcl10 after LPS with IRAK 1/4 inhibitor (Bcl10; [1]): 2.36 ± 0.08 ng/mL
- decline of the LPS-induced increase in Bcl10 (Bcl10; [1]): 73%
- effect on the LPS-induced increase in Bcl10 (result in words) (Bcl10; [2]): eliminated
